Laboratory results taken from patent US4514420A, “Antifibrotic agent” (Takeda Chemical Industries, Ltd., priority 1982, dated 1985).

Experiments:
Collagen biosynthesis = Collagen biosynthesis inhibiting activity (collagen content of the uterus); type: in vivo, rats of SD strain; settings: female SD rats; for Collagen content of uterus / Body weight of rats: groups of 3; for Collagen content of uterus: control 1.64 ± 0.3; for Body weight of rats: control 73 ± 6
Description: (2) Collagen biosynthesis inhibiting activity
Basically in accordance with the method of R. A. Salvador et al. [Arch. Biochem. Biophys. 174, 382 (1976)], 0.2 mg/kg of each test compound was intraperitoneally administered to rats of SD strain (.female., 3 weeks old) once daily for 6 consecutive days and the collagen content of the uterus was compared with the control value.
*Rats were used in groups of 3. Initial body weights = 41 ± 2 ~

[1] = target: T1, Protocollagen proline hydroxylase (Gallus gallus, UniProt P16924); test: Protocollagen proline hydroxylase-inhibiting activity; type: biochemical; settings: partially purified chick embryo enzyme, 100 μg as protein, substrate (Pro-Pro-Gly)5.4H2O; for inhibition at 20 µM: Concentration 20 μM
T1 construct: partially purified enzyme preparation derived from chick embryos; from tissue; host or cells: chick embryos
T1 sequence (P16924 1-516): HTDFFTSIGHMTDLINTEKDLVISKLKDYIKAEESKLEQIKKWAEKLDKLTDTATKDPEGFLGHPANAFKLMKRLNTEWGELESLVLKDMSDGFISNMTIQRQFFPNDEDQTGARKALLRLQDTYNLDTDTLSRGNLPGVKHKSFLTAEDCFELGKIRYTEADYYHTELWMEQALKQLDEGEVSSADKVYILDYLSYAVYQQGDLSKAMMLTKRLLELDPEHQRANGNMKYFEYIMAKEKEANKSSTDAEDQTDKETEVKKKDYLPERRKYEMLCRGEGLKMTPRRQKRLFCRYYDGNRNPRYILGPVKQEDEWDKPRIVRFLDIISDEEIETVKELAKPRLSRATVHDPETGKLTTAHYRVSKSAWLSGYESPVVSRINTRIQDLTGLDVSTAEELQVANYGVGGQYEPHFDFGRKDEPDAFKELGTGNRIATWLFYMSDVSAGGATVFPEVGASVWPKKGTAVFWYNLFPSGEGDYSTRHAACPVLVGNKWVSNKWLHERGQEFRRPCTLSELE
T1 sequence (P09102 23-515 partner): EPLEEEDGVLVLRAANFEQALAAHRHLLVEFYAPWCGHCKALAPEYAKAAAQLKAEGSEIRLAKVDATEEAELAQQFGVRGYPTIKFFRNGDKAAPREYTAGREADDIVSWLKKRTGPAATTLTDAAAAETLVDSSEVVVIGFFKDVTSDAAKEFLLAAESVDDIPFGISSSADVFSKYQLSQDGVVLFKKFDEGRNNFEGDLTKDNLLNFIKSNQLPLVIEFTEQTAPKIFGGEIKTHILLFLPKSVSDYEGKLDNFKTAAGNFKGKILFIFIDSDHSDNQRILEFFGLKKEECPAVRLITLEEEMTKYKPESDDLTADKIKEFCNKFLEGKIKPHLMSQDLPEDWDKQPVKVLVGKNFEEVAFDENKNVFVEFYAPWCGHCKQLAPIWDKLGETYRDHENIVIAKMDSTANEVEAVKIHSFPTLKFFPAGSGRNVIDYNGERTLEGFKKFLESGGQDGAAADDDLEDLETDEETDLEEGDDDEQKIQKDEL
Description: (1) Protocollagen proline hydroxylase-inhibiting activity
This inhibitory activity was assayed by the procedure of R. E. Rhoads et al. (Methods in Enzymology XVII B, 306 (1971)) using a partially purified enzyme preparation derived from chick embryos in accordance with the methods of K. I. Kivirriko et al. and J. Halme et al. (J. Biol. Chem. 242, 4007 (1967) and Biochem. Biophys. Acta 198, 460 (1967), and, as a substrate, (Pro-Pro-Gly)5.4H2 O (Protein Research Foundation, Osaka). In this assay, the partially purified enzyme preparation was used in the amount of 100 μg as protein. The results are shown in Table 1.

[2] = Toxicity, gastric gavage to rats in a 5-week regimen; type: in vivo; settings: 2500 mg/kg/day
Source text: The compound (I) is very low in toxicity.

[3] = 17β-Estradiol alone, 0.2 mg/kg intraperitoneally once daily for 6 consecutive days
[4] = given with 17β-Estradiol, 0.2 mg/kg of each test compound intraperitoneally once daily for 6 consecutive days

C[C@]12CC[C@@H]3c4ccc(O)cc4CC[C@H]3[C@@H]1CC[C@@H]2O [17β-Estradiol, reference compound]
Collagen content of uterus (Collagen biosynthesis; [3]): 3.45 ± 0.11 | Body weight of rats (Collagen biosynthesis; [3]): 73 ± 3 g

COC1=C(OC)C(=O)C(CCCCO)=C(C)C1=O [A:CH2 n:3 R:H]
inhibition at 25 µM ([1]; Concentration 25 μM): 68%

COC1=C(OC)C(=O)C(CCCCCCCCCCO)=C(C)C1=O [A:CH2 n:9 R:H, 2,3-dimethoxy-5-methyl-6-(10'-hydroxydecyl)-1,4-benzoquinone]
inhibition at 20 µM [1]: 37% | Collagen content of uterus (Collagen biosynthesis; [4]): 2.94 ± 0.28 | Body weight of rats (Collagen biosynthesis; [4]): 69 ± 6 g | Degree of inhibition (Collagen biosynthesis; given with 17β-Estradiol, 0.2 mg/kg of each test compound intraperitoneally once daily for 6 consecutive days, formula in footnote ** (drawing 3)): 28 | Abnormalities in body weight, food intake, urinalysis and blood tests [2]: no abnormalities in body weight, food intake, urinalysis and blood tests

COC(=O)CCCC1=C(C)C(=O)C(OC)=C(OC)C1=O [A:CO n:3 R:CH3]
inhibition at 50 µM ([1]; Concentration 50 μM): 47%

COC1=C(OC)C(=O)C(CCCC(=O)O)=C(C)C1=O [A:CO n:3 R:H]
inhibition at 20 µM [1]: 57%

COC1=C(OC)C(=O)C(CCCCCCCC(=O)O)=C(C)C1=O [A:CO n:7 R:H]
inhibition at 20 µM [1]: 35%

COC(=O)CCCCCCCCCC1=C(C)C(=O)C(OC)=C(OC)C1=O [A:CO n:9 R:CH3]
inhibition at 20 µM [1]: 21%

COC1=C(OC)C(=O)C(CCCCCCCCCC(=O)O)=C(C)C1=O [A:CO n:9 R:H]
inhibition at 20 µM [1]: 31%
